Data: publication PMC12683216, “Using High‐Throughput Screening to Identify Crosslinking Peptides That Control Cell‐Mediated Matrix Degradation” (Advanced Healthcare Materials, 2025)
Where a SMILES comes first, the peptide text is derived from it. [ ]: non-standard residue; d: D form. βAla = NCCC(=O)O

What was measured:
Format in all cases: in vitro ADME, human
Details in all cases: human, 24 h, LC-MS
[1] = Soluble peptide degradation, Cells condition (LC-MS)
Description: (§1) Most in vitro protease activity assays incubate the peptides or proteins of interest with a single protease in a buffered solution. However, the kinetics of protease activity in tissues are complex and highly regulated, and both the activity^[ [37] ^] and substrate specificity^[ [38] ^] of proteases can be modulated through association with other proteins.^[ [39] ^] Most MMP‐substrate peptides are also cleaved by multiple proteases,^[ [5] ^] and within the context of biomaterials, the most important factor is typically how the combined activity of all proteases, rather than the activity of any specific protease, modifies the local microenvironment versus the activity due to any individual enzyme. We synthesized peptides identified in the TAILS proteomic screen that were present on proteins that are known to be secreted or found on the cell membrane, pooled them, and added them either to cell culture media on top of cells, the “Cells” condition, or conditioned media lacking cells, the “Media” condition (Figure 2A). The fraction of peptides remaining after 24 h in each condition was then quantified using LC‐MS. Soluble proteases should be present in both conditions, however, membrane‐type proteases should primarily be found in the samples containing cells and not the conditioned media samples. A key benefit of this approach is that it surveys the total functional proteolytic activity, including the effects of inhibitors and co‐factors, and quantifies the degradation rate of soluble peptides by the complete secretome of different cell types.
(§2) hUVECs (75000 per well) or hMSCs (36000 per well) were seeded into a 48 well plate, and 500 µL media was added to the wells. […] The peptide libraries were dissolved at a stock solution of 10 mM total peptide content. For libraries containing 38 peptides, 95 µL of the stock solution was added to each well; for libraries with 19 peptides, 47.5 µL was added to each well, and media was taken at 0 and 24 h. Add 4 µL of acetic acid to all collected media in the LC‐MS plates and store them in a −80 °C freezer to prevent further proteolytic degradation. From each sample, 10 µL of crude solution was introduced by the LC‐MS through a Thermo Scientific Vanquish LC System (Thermo Fisher Scientific), which outputted to a Thermo Scientific LTQ XL Linear Ion Trap Mass Spectrometer (Thermo Fisher Scientific). The sampled mixture was trapped on a column (ProntoSIL C18 AQ, 120 Å, 3 µm, 2.0 x 50 mm HPLC Column, PN 0502F184PS030, MAC‐MOD Analytical Inc.). The samples were loaded onto the column with a solvent containing acetonitrile/water, 5:95 (v/v) containing 1% acetic acid at a flow rate of 300 µL min^−1 and held for 1 min. The sample was then eluted from the column with a linear gradient of 5–40% Solvent B (1% acetic acid in acetonitrile) at the same flow rate for 5 min. This was followed by a 1 min ramp up to 100% Solvent B, where it was re‐equilibrated with Solvent A (1% acetic acid) to 5% solvent B over the course of 1 min and held there for 2 min. The column temperature was kept at a constant 29 °C, and the mass spectrometer was operated in positive ion mode. Using a Heated ESI, the Source Voltage was set to 4.1 kV, and the capillary temperature was 350 °C. For non‐library degradation studies, 2.5 µL of 10 mM peptide stock solution for each peptide was added.
In the MMP‐14 inhibitor study, the MMP‐14 inhibitor NSC 405 020 (Cayman Chemical Company) was dissolved in DMSO to make a 10 mM stock solution and stored in −20 °C freezer. 0.5 µL MMP‐14 inhibitor stock solution was added to each well to achieve a 10 µM final concentration.
For all degradation studies using soluble peptides, a non‐proteolytically degradable NH2‐βFβAβAβAβAβAβA‐amide (βFβA6) peptide, where βF is β‐phenylalanine and βA is β‐alanine, was added at a 50 µM concentration and used as an internal standard. Peptide degradation ratios were measured by LC‐MS and analyzed by Xcalibur. […]

[2] = Soluble peptide degradation, Media condition (cell-conditioned media, LC-MS)
Description: as §1, §2
(§3) To assess the activity of the conditioned media, the media were divided into two equal portions. One portion was used for a standard degradation study, while the other was cultured for an additional 24 h before the PanMMP and KLVADLMASAE were added. After 24 h of incubation, the media were collected for further analysis. To assess the impact of recombinant MMP‐14 on PanMMP and KLVADLMASAE, recombinant MMP‐14 (antibodies.com) was dissolved in the media at a concentration of 0.5 nM. The remaining steps followed the standard degradation study protocol. […]

[3] = as above; remark: listed apart in the source
Description: as §1, §2, §3

[4] = hMSCs in culture with fresh media (Cells condition), Figure 3B heatmap, split-and-pool libraries KLVADX1X2ASAE (19 or 38 peptides per library) in media on hMSCs, ratio to βFβA6, N = 2, read-out: Fraction of peptide remaining after 24 hours: hMSC Cells
[5] = hUVECs in culture with fresh media (Cells condition), Figure 3B heatmap, split-and-pool libraries KLVADX1X2ASAE in media on hUVECs, ratio to βFβA6, N = 2, read-out: Fraction of peptide remaining after 24 hours: hUVEC Cells
[6] = hMSC-conditioned media without cells (Media condition), Figure 3B heatmap, split-and-pool libraries KLVADX1X2ASAE in hMSC-conditioned media without cells, ratio to βFβA6, N = 2, read-out: Fraction of peptide remaining after 24 hours: hMSC Media
[7] = hUVEC-conditioned media without cells (Media condition), Figure 3B heatmap, split-and-pool libraries KLVADX1X2ASAE in hUVEC-conditioned media without cells, ratio to βFβA6, N = 2, read-out: Fraction of peptide remaining after 24 hours: hUVEC Media
[8] = hMSCs in culture with fresh media (Cells condition), Figure 2B heatmap, pooled TAILS-derived soluble peptides (Ac-βAla N-terminus, βAla-amide C-terminus) in media on hMSCs (36000 per well, 48 well plate, 500 µL), ratio to βFβA6 internal standard, 24 h / 0 h, N = 5, read-out: Fraction of peptide remaining at 24 hours: hMSC Cells
[9] = Figure 2B heatmap, pooled TAILS-derived soluble peptides in 24 h hMSC-conditioned media without cells, ratio to βFβA6 internal standard, 24 h / 0 h, N = 5, read-out: Fraction of peptide remaining at 24 hours: hMSC Media
[10] = Figure 2B heatmap, pooled TAILS-derived soluble peptides in 24 h hUVEC-conditioned media without cells, ratio to βFβA6 internal standard, 24 h / 0 h, N = 5, read-out: Fraction of peptide remaining at 24 hours: hUVEC Media
[11] = hUVECs in culture with fresh media (Cells condition), Figure 2B heatmap, pooled TAILS-derived soluble peptides in media on hUVECs (75000 per well, 48 well plate, 500 µL), ratio to βFβA6 internal standard, 24 h / 0 h, N = 5, read-out: Fraction of peptide remaining at 24 hours: hUVEC Cells

| remaining at 24 h [1, 4] | remaining at 24 h [1, 5] | remaining at 24 h [2, 6] | remaining at 24 h [3, 7] | remaining at 24 h [1, 8] | remaining at 24 h [2, 9] | remaining at 24 h [3, 10] | remaining at 24 h [1, 11] | Structure (SMILES) |
| --- | --- | --- | --- | --- | --- | --- | --- | --- |
| 38% | 81% | 66% | 94% |  |  |  |  | CC(=O)NCCC(=O)N[C@@H](CCCCN)C(=O)N[C@@H](CC(C)C)C(=O)N[C@H](C(=O)N[C@@H](C)C(=O)N[C@@H](CC(=O)O)C(=O)N1CCC[C@H]1C(=O)N[C@@H](Cc1c[nH]c2ccccc12)C(=O)N[C@@H](C)C(=O)N[C@@H](CO)C(=O)N[C@@H](C)C(=O)N[C@@H](CCC(=O)O)C(=O)NCCC(N)=O)C(C)C [Pro-Trp] (Ac-[βAla]KLVADPWASAE[βAla]-NH2) |
| 51% | 92% | 84% | 100% |  |  |  |  | CC(=O)NCCC(=O)N[C@@H](CCCCN)C(=O)N[C@@H](CC(C)C)C(=O)N[C@H](C(=O)N[C@@H](C)C(=O)N[C@@H](CC(=O)O)C(=O)N1CCC[C@H]1C(=O)N[C@H](C(=O)N[C@@H](C)C(=O)N[C@@H](CO)C(=O)N[C@@H](C)C(=O)N[C@@H](CCC(=O)O)C(=O)NCCC(N)=O)C(C)C)C(C)C [Pro-Val] (Ac-[βAla]KLVADPVASAE[βAla]-NH2) |
|  |  |  |  | 73% | 92% | 99% |  | CC[C@H](C)[C@H](NC(=O)[C@H](Cc1c[nH]cn1)NC(=O)[C@H](CCC(=O)O)NC(=O)[C@@H]1CCCN1C(=O)[C@H](Cc1ccccc1)NC(=O)[C@H](CC(N)=O)NC(=O)CCNC(C)=O)C(=O)N[C@@H](Cc1ccccc1)C(=O)N1CCC[C@H]1C(=O)N[C@@H](C)C(=O)N[C@@H](CC(C)C)C(=O)N[C@@H](C)C(=O)NCCC(N)=O [NFPEHIFPALA] (Ac-[βAla]NFPEHIFPALA[βAla]-NH2) |
| 40% | 86% | 72% | 95% |  |  |  |  | CC(=O)NCCC(=O)N[C@@H](CCCCN)C(=O)N[C@@H](CC(C)C)C(=O)N[C@H](C(=O)N[C@@H](C)C(=O)N[C@@H](CC(=O)O)C(=O)N[C@@H](CO)C(=O)N[C@@H](Cc1c[nH]c2ccccc12)C(=O)N[C@@H](C)C(=O)N[C@@H](CO)C(=O)N[C@@H](C)C(=O)N[C@@H](CCC(=O)O)C(=O)NCCC(N)=O)C(C)C [Ser-Trp] (Ac-[βAla]KLVADSWASAE[βAla]-NH2) |
|  |  |  |  | 96% | 101% | 102% | 106% | CC[C@H](C)[C@H](NC(=O)CCNC(C)=O)C(=O)N[C@H](C(=O)N[C@@H](CCCCN)C(=O)N[C@H](C(=O)N[C@@H](CC(=O)O)C(=O)N[C@H](C(=O)N1CCC[C@H]1C(=O)N[C@@H](CC(=O)O)C(=O)N[C@@H](CCSC)C(=O)N[C@H](C(=O)NCCC(N)=O)C(C)C)[C@@H](C)CC)[C@@H](C)O)C(C)C [IVKTDIPDMV] (Ac-[βAla]IVKTDIPDMV[βAla]-NH2) |
| 43% | 86% | 76% | 92% |  |  |  |  | CC[C@H](C)[C@H](NC(=O)[C@H](Cc1ccc(O)cc1)NC(=O)[C@H](CC(=O)O)NC(=O)[C@H](C)NC(=O)[C@@H](NC(=O)[C@H](CC(C)C)NC(=O)[C@H](CCCCN)NC(=O)CCNC(C)=O)C(C)C)C(=O)N[C@@H](C)C(=O)N[C@@H](CO)C(=O)N[C@@H](C)C(=O)N[C@@H](CCC(=O)O)C(=O)NCCC(N)=O [Tyr-Ile] (Ac-[βAla]KLVADYIASAE[βAla]-NH2) |
| 37% | 91% | 62% | 98% |  |  |  |  | CC(=O)NCCC(=O)N[C@@H](CCCCN)C(=O)N[C@@H](CC(C)C)C(=O)N[C@H](C(=O)N[C@@H](C)C(=O)N[C@@H](CC(=O)O)C(=O)N[C@@H](CC(C)C)C(=O)N[C@@H](Cc1c[nH]c2ccccc12)C(=O)N[C@@H](C)C(=O)N[C@@H](CO)C(=O)N[C@@H](C)C(=O)N[C@@H](CCC(=O)O)C(=O)NCCC(N)=O)C(C)C [Leu-Trp] (Ac-[βAla]KLVADLWASAE[βAla]-NH2) |
| 41% | 91% | 73% | 97% |  |  |  |  | CC(=O)NCCC(=O)N[C@@H](CCCCN)C(=O)N[C@@H](CC(C)C)C(=O)N[C@H](C(=O)N[C@@H](C)C(=O)N[C@@H](CC(=O)O)C(=O)N[C@@H](CC(C)C)C(=O)N[C@@H](CC(C)C)C(=O)N[C@@H](C)C(=O)N[C@@H](CO)C(=O)N[C@@H](C)C(=O)N[C@@H](CCC(=O)O)C(=O)NCCC(N)=O)C(C)C [Leu-Leu] (Ac-[βAla]KLVADLLASAE[βAla]-NH2) |
|  |  |  |  | 100% | 87% | 104% | 103% | CC(=O)NCCC(=O)N1CCC[C@H]1C(=O)N1CCC[C@H]1C(=O)N[C@@H](CO)C(=O)N[C@@H](CCCNC(=N)N)C(=O)N[C@@H](Cc1c[nH]cn1)C(=O)N[C@@H](CC(=O)O)C(=O)N[C@H](C(=O)NCC(=O)N[C@H](C(=O)N1CCC[C@H]1C(=O)NCCC(N)=O)[C@@H](C)O)[C@@H](C)O [PPSRHDTGTP] (Ac-[βAla]PPSRHDTGTP[βAla]-NH2) |
|  |  |  |  | 88% | 98% | 102% | 100% | CC(=O)NCCC(=O)N[C@@H](CCC(=O)O)C(=O)N[C@@H](CO)C(=O)N[C@@H](CO)C(=O)N[C@@H](Cc1c[nH]cn1)C(=O)N[C@@H](CC(N)=O)C(=O)N[C@H](C(=O)N[C@@H](Cc1ccc(O)cc1)C(=O)N[C@@H](CC(C)C)C(=O)N[C@H](C(=O)N[C@@H](CCC(N)=O)C(=O)NCCC(N)=O)[C@@H](C)O)[C@@H](C)O [ESSHNTYLTQ] (Ac-[βAla]ESSHNTYLTQ[βAla]-NH2) |
